Measured values: patent publication US9850227B2 (YUHAN CORPORATION, priority 2011, dated 2017)
Structures can show the parent of a compound that is named as a salt.

Target: T1, human 5-HT4(a) (Homo sapiens, UniProt Q13639)
T1 construct: host or cells: GeneBIAzer HTR4-CRE-bla CHO-K1 cells
Test: Evaluation of agonistic activity in CHO-K1 cells expressing human 5-HT4(a) (GeneBIAzer HTR4-CRE-bla CHO-K1 cells, beta-lactamase fluorescence ratio, EC50 from 8 concentrations)
Type: cell-based
Description: Evaluation of Agonistic Activity in CHO-K1 Cells Expressing Human 5-HT4(a)
As CHO-K1 cells stably expressing human 5-HT4(a), we used the GeneBIAzer HTR4-CRE-bla CHO-K1 cells (Invitrogen Corp.). The cells were cultured, under the condition of 37° C. and 5% CO2, in a DMEM supplemented with 10% fetal bovine serum (FBS), 25 mM HEPES (pH7.4), 600 μg/ml hygromycin B, 0.1 mM non-essential amino acids, 100 unit/ml penicillin and 100 μg/ml streptomycin. Subcultures were performed three times per one week, each being at less than 80% confluence. At the previous day before treating test compounds, the cells were collected using 0.5% trypsin/EDTA and then diluted with a DMEM supplemented with 1% FBS, 25 mM HEPES, and 0.1 mM non-essential amino acids into 3.125×10^5 cells/ml. 32 μl of the diluted cells were added into 384-well plate (10^4 cells per well) and then incubated overnight. After the overnight culture, 8 μl of the medium having 1% of DMSO was added into the cell-free control well and the non-stimulating control well, respectively. 8 μl of the respective test compound dilutions (which had been prepared by diluting by 100-times with the medium as mentioned in the above) having 1% of DMSO were added to the respective remaining wells. After being cultured in the incubator for 5 hours, the wells of the 384-plate were treated with the substrate solution (8 μl per well) prepared according to the vendor's instruction (i.e., Invitrogen's instruction), and then incubated in the dark room for additional two hours. Agonistic activities on 5-HT4 receptor were evaluated, on the basis of fluorescence values of the cleavage-products by beta-lactamase. After exciting to 410 nm of wavelength using a fluorescence detector (Genios Pro), we measured the fluorescence values at two emission wavelengths (first wavelength: 465 nm, second wavelength: 535 nm). Data were analyzed on the basis of the ratio of fluorescence intensities of each well at the respective wavelengths. Each EC50 value was calculated by non-linear regression analysis using the “GraphPad Prism” program, based on the activities according to 8-different concentrations of the test compounds.

T1 sequence (Q13639 1-387 isoform Q13639-2): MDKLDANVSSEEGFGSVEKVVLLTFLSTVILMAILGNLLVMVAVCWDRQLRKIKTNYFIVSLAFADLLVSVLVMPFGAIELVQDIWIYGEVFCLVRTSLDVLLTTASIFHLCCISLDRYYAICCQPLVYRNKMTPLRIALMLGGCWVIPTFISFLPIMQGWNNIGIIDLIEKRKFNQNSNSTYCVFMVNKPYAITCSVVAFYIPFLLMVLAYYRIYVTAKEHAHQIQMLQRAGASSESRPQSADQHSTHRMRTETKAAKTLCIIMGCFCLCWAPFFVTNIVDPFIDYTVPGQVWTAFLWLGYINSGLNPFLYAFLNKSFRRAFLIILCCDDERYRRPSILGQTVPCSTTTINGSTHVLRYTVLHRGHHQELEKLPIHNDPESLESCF

| Compound | EC50 [pM] |
| --- | --- |
| CCCc1cc(N2CCNC[C@H]2C)nc(Nc2ccc(C)c(C#N)c2)n1 [Example 126, (R)-2-methyl-5-[4-(2-methylpiperazin-1-yl)-6-propylpyrimidin-2-ylamino]benzonitrile] | 13 |
| CCCc1cc(N2CCNC[C@H]2C)nc(Nc2ccc(N)c(C#N)c2)n1 [Example 127, (R)-2-amino-5-[4-(2-methylpiperazin-1-yl)-6-propylpyrimidin-2-ylamino]benzonitrile] | 53 |
| CCCc1cc(N2CCNC[C@H]2C)nc(Nc2ccc(N)c([N+](=O)[O-])c2)n1 [Example 128, (R)-N^1-[4-(2-methylpiperazin-1-yl)-6-propylpyrimidin-2-yl]-3-nitrobenzene-1,4-diamine] | 4.9 |
| CCCc1cc(N2CCNC[C@H]2C)nc(Nc2cc(N)cc(C#N)c2)n1 [Example 129, (R)-3-amino-5-[4-(2-methylpiperazin-1-yl)-6-propylpyrimidin-2-ylamino]benzonitrile] | 4.1 |
| CCCc1cc(N2CCCCC2CCO)nc(Nc2cccc(C#N)c2)n1 (stereo not shown) [Example 131, 3-{4-[2-(2-hydroxyethyl)piperidin-1-yl]-6-propylpyrimidin-2-ylamino}benzonitrile] | 120 |
| CCCc1cc(N2CCCCC2CCO)nc(Nc2ccc3nc(C(F)(F)F)[nH]c3c2)n1 (stereo not shown) [Example 136, 2-(1-{6-propyl-2-[2-(trifluoromethyl)-1H-benzo[d]imidazol-6-ylamino]pyrimidin-4-yl}piperidin-2-yl)ethanol] | 350 |
| CCCc1cc(N2CCCCC2CCO)nc(Nc2cccc(OC)c2)n1 (stereo not shown) [Example 138, 2-{1-[2-(3-methoxyphenylamino)-6-propylpyrimidin-4-yl]piperidin-2-yl}ethanol] | 460 |
| CCCc1cc(N2CCCCC2CCO)nc(Nc2ccc(C)c(Cl)c2)n1 (stereo not shown) [Example 140, 2-{1-[2-(3-chloro-4-methylphenylamino}-6-propylpyrimidin-4-yl]piperidin-2-yl}ethanol] | 280 |
| CCCc1cc(N2CCCCC2CCO)nc(Nc2cccc([N+](=O)[O-])c2)n1 (stereo not shown) [Example 141, 2-{1-[2-(3-nitrophenylamino)-6-propylpyrimidin-4-yl]piperidin-2-yl}ethanol] | 150 |
| CCCc1cc(N2CCCCC2CCO)nc(Nc2ccc(F)c([N+](=O)[O-])c2)n1 (stereo not shown) [Example 142, 2-{1-[2-(4-fluoro-3-nitrophenylamino)-6-propylpyrimidin-4-yl]piperidin-2-yl}ethanol] | 300 |
| CCCc1cc(N2CCCCC2CCO)nc(Nc2ccc3c(C)cc(=O)oc3c2)n1 (stereo not shown) [Example 146, 7-{4-[2-(2-hydroxyethyl)piperidin-1-yl]-6-propylpyrimidin-2-ylamino}-4-methyl-2H-chromen-2-one] | 270 |
| CCCc1cc(N2CCCCC2CCO)nc(Nc2cccc(C(F)(F)F)c2)n1 (stereo not shown) [Example 147, 2-{1-[6-propyl-2-(3-trifluoromethylphenylamino)pyrimidin-4-yl]piperidin-2-yl}ethanol] | 310 |
| CCCc1cc(N2CCC[C@H](N)C2)nc(Nc2ccc(C)c(C#N)c2)n1 [Example 150, (S)-5-[4-(3-aminopiperidin-1-yl)-6-propylpyrimidin-2-ylamino]-2-methylbenzonitrile dihydrochloride] | 70 |
| CCCc1cc(N2CCC[C@H](N)C2)nc(Nc2cccc([N+](=O)[O-])c2)n1 [Example 151, (S)-4-(3-aminopiperidin-1-yl)-N-(3-nitrophenyl)-6-propylpyrimidin-2-amine dihydrochloride] | 361 |
| CCCc1cc(N2CCC[C@@H](N)C2)nc(Nc2ccc(C)c(C#N)c2)n1 [Example 153, (R)-5-[4-(3-aminopiperidin-1-yl)-6-propylpyrimidin-2-ylamino]-2-methylbenzonitrile] | 20 |
| CCCCN[C@H]1CCCN(c2cc(CCC)nc(Nc3ccc(C)c(C#N)c3)n2)C1 [Example 154, (S)-5-{4-[3-(butylamino)piperidin-1-yl]-6-propylpyrimidin-2-ylamino}-2-methylbenzonitrile] | 41 |
| CCCCCN[C@H]1CCCN(c2cc(CCC)nc(Nc3ccc(C)c(C#N)c3)n2)C1 [Example 155, (S)-5-{4-[3-(pentylamino)piperidin-1-yl]-6-propylpyrimidin-2-ylamino}-2-methylbenzonitrile] | 93 |
| CCCc1cc(N2CCC[C@H](NCC(C)C)C2)nc(Nc2ccc(C)c(C#N)c2)n1 [Example 156, (S)-5-{4-[3-(isobutylamino)piperidin-1-yl]-6-propylpyrimidin-2-ylamino}-2-methylbenzonitrile] | 66 |
| CCCc1cc(N2CCC[C@H](NCCC(C)C)C2)nc(Nc2ccc(C)c(C#N)c2)n1 [Example 157, (S)-5-{4-[3-(isopentylamino)piperidin-1-yl]-6-propylpyrimidin-2-ylamino}-2-methylbenzonitrile] | 88 |
| CCCc1cc(N2CCC[C@H](NCC(C)(C)C)C2)nc(Nc2ccc(C)c(C#N)c2)n1 [Example 158, (S)-2-methyl-5-{4-[3-(neopentylamino)piperidin-1-yl]-6-propylpyrimidin-2-ylamino}benzonitrile] | 54 |
| CCCc1cc(N2CCC[C@H](NCc3ccc[nH]3)C2)nc(Nc2ccc(C)c(C#N)c2)n1 [Example 159, (S)-5-(4-{3-[(1H-pyrrol-2-yl)methylamino]piperidin-1-yl}-6-propylpyrimidin-2-ylamino)-2-methylbenzonitrile] | 46 |
| CCCc1cc(N2CCC[C@H](NCc3cccs3)C2)nc(Nc2ccc(C)c(C#N)c2)n1 [Example 160, (S)-2-methyl-5-(4-propyl-6-{3-[(thiophen-2-ylmethyl)amino]piperidin-1-yl}pyrimidin-2-ylamino)benzonitrile] | 125 |
| CCCc1cc(N2CCC[C@H](NCc3cc(C)c(C)o3)C2)nc(Nc2ccc(C)c(C#N)c2)n1 [Example 161, (S)-5-(4-{3-[(4,5-dimethylfuran-2-ylmethyl)amino]piperidin-1-yl}-6-propylpyrimidin-2-ylamino)-2-methylbenzonitrile] | 148 |
| CCCc1cc(N2CCC[C@H](NCCCSC)C2)nc(Nc2ccc(C)c(C#N)c2)n1 [Example 162, (S)-2-methyl-5-{4-[3-(3-methylthiopropylamino)piperidin-1-yl]-6-propylpyrimidin-2-ylamino}benzonitrile] | 43 |
| CCCc1cc(N2CCC[C@H](NCC3CC3)C2)nc(Nc2ccc(C)c(C#N)c2)n1 [Example 163, (S)-5-{4-[3-(cyclopropylmethylamino)piperidin-1-yl]-6-propylpyrimidin-2-ylamino}-2-methylbenzonitrile] | 88 |
| CCCc1cc(N2CCC[C@H](NCc3ccc(O)cc3)C2)nc(Nc2ccc(C)c(C#N)c2)n1 [Example 164, (S)-5-{4-[3-(4-hydroxybenzylamino)piperidin-1-yl]-6-propylpyrimidin-2-ylamino}-2-methylbenzonitrile] | 75 |
| CCCc1cc(N2CCC[C@H](N(CC)CC)C2)nc(Nc2ccc(C)c(C#N)c2)n1 [Example 165, (S)-5-[4-(3-diethylaminopiperidin-1-yl)-6-propylpyrimidin-2-ylamino]-2-methylbenzonitrile] | 188 |
| CCCc1cc(N2CCCCC2CCO)nc(Nc2ccc(C)c([N+](=O)[O-])c2)n1 (stereo not shown) [Example 174, 2-{1-[2-(4-methyl-3-nitrophenylamino)-6-propylpyrimidin-4-yl]piperidin-2-yl}ethanol] | 39 |
